In patent publication US20200188297A1, “LXR Agonist in Topical Ophthalmic Formulation for Treatment of Dry-Eye Disorder” (eyeNOS, Inc., priority 2018, published 2020):
Where two headings read alike, the source gives them in different places.

Key:
[1] = tested on: human corneal epithelial cells (HCE-T); test: Multiplex cytokine expression analysis, LPS-induced secretion; assay type: cell-based; details: LPS 10 ng/ml, preincubation with compound
Protocol: The anti-inflammatory effects of T0901317 were studied on in-vitro cell culture of human corneal epithelial cells (HCE-T). […] Multiplex cytokine expression analysis was performed to determine the anti-inflammatory effects of T0901317 (at 200 nM). […] Lipopolysaccharide (LPS)-induced (10 ng/ml) secretion of IL-17, IL-18, and IFNγ was also examined. […] Topical application is not expected to result in activation of the pregnane X receptor (PXR), supporting the notion that the anti-inflammatory effects observed here, both in-vivo and in-vitro, can be attributed to LXR activation.

retinoid X receptor = details: read-out: EC50 for activation of the retinoid X receptor; cited from earlier work
[2] = tested on: human corneal epithelial cells (HCE-T); test: Multiplex cytokine expression analysis, hyperosmolar stress insult; assay type: cell-based; details: 200 nM, preincubation 1 hour, 600 mOsm for 20 hours
Protocol: The anti-inflammatory effects of T0901317 were studied on in-vitro cell culture of human corneal epithelial cells (HCE-T). HCE-T cells were grown in DMEM/F12 (1:1), 5% fetal bovine serum, penicillin-streptomycin, […] insulin, 10 ng/ml human recombinant epidermal growth factor and 0.5% dimethyl sulfoxide in 5% CO2 at 37° C. To simulate dry-eye conditions, the cells were exposed to hyperosmolar stress insult as described in Chen et al, “Hyperosmolarity-Induced Cornification of Human Corneal Epithelial Cells Is Regulated by JNK MAPK” (February 2008) Investigative Ophthalmology & Visual Science, 49(2):539-549. Confluent HCE-T were passaged into 12-well plates containing KSFM media (keratinocyte-SFM media) for 24 hours, and then NaCl was added to wells in concentrations to produce media osmolarities in the range of 350-800 mOsm. Multiplex cytokine expression analysis was performed to determine the anti-inflammatory effects of T0901317 (at 200 nM).

[3] = tested on: liver X receptors (LXRα, LXRβ); details: cited from earlier work
[4] = tested on: human corneal epithelial (HCE-T) cells; test: ZO-1 immunocytochemistry (barrier function) under hyperosmolar stress; assay type: cell-based; details: 0.05 μM in DMSO, pre-treated one hour; 50 mM NaCl overnight; FIG. 20
Protocol: The corneal epithelium serves as a physiological barrier. However, inflammation and the ensuing oxidative stress can impair barrier function and contribute to the exacerbation of inflammatory processes and increase susceptibility to other ocular surface conditions, such as corneal keratitis. The effect of ouabagenin on the barrier function of human corneal epithelial (HCE-T) cells was tested in in-vitro experiments. The cells were seeded at 25,000 cells/well in 8-chamber slides. Cells were incubated for 3 days at 37° C. until confluent. Cells were pre-treated with DMSO (vehicle) or ouabagenin (0.05 μM in DMSO). One hour later, cells received treatment of 0 (media), 25, 50, or 75 mM NaCl to mimic hyperosmolar conditions. Cells were incubated overnight at 37° C.
Zona occludens 1 (ZO-1) is a tight junction protein that is involved in the barrier function of corneal epithelium. The presence of ZO-1 (or absence thereof) is an indicator of the health of this barrier. In this experiment, immunocytochemistry for ZO-1 was performed on the HCE-T cells after the overnight incubation. Slides were imaged under a fluorescent microscope.

Structure (SMILES) | LPS-induced secretion of IL-17 ([1]; FIG. 19D) | LPS-induced secretion of IL-18 ([1]; FIG. 19E) | LPS-induced secretion of IFNγ ([1]; FIG. 19F) | EC50 (retinoid X receptor) [µM] | hyperosmolar stress-induced secretion of IL-12 ([2]; FIG. 19B) | hyperosmolar stress-induced secretion of IL-17 ([2]; FIG. 19C) | LXR subtype selectivity [3] | ZO-1 at the cell junctions (barrier function) [4] | LXR subtype selectivity ([3]; literature reports)
O=S(=O)(c1ccccc1)N(CC(F)(F)F)c1ccc(C(O)(C(F)(F)F)C(F)(F)F)cc1 [T0901317] | suppressed | suppressed | suppressed | 5 | fully suppressed | fully suppressed | selective for the LXRα subtype |  | 
C[C@]12C[C@@H](O)[C@H]3[C@@H](CC[C@]4(O)C[C@@H](O)C[C@@H](O)[C@]34CO)[C@@]1(O)CC[C@@H]2C1=CC(=O)OC1 [ouabagenin] |  |  |  |  |  |  |  | protected against this loss of ZO-1 barrier function | LXRβ-subtype specific agonist
